Assay [1] relates to Methicillin Resistant Staphylococcus aureus strain USA 300 (NRS384). Description: MIC, broth micro-dilution technique (CLSI). Format: cell-based. The note with it: for MIC: Staphylococcus aureus, 22 h, read-out: MIC (μg/mL) S. aureus. How it is done: (§1) In vitro antimicrobial activity of each compound was determined by measuring minimal inhibitor concentrations (MICs) using the broth micro-dilution technique as approved by the Clinical and Laboratory Standards Institute (CLSI) (Methods for Dilution Antimicrobial Susceptibility Tests for Bacteria that Grow Aerobically; Approved Standard—Eighth Edition. CLSI document M07-A8. Wayne, Pa.: Clinical and Laboratory Standards; 2009). Antibacterial activity was measured against three strains of bacteria: a Methicillin Resistant Staphylococcus aureus strain USA 300 (NRS384); a MRSA COL (NRS100), another Methicillin Resistant Staphylococcus aureus strain; and a strain of Escherichia coli MC4100 harboring the IMP4213, which results in increased outer-membrane permeability (B Martin and Silhavy T. Imp/OstA is required for cell envelope biogenesis in Escherichia coli. (2002) Molecular Microbiology, 45(5), 1289-1302). Cells were inoculated onto plates of Trypyticase Soy Agar or Luria Agar respectively and grown at 35° C. for 20 hours. Inocula suspensions were prepared by scraping cells into 1 ml of testing media (cation adjusted Mueller Hinton Broth supplemented with 0.002% v/v Tween-80) and diluting to a final OD600 nm of 0.01.
(§2) Test compounds were prepared in DMSO at a concentration of 10 mg/ml. These compound stocks were diluted into testing media at a concentration of 64 μg/ml and serial 2-fold dilutions were made in the same media, in 96-well U bottom microtiter dishes, for a total of 10 compound concentrations (Table 1). In modified protocols (Table 2), compound stocks were diluted into testing media at a concentration of 4 μg/mL and serial 2-fold dilutions were made in the same media, in 96-well U bottom microtiter dishes, for a total of 10 compound concentrations. Inocula suspensions were added to the 2-fold serial dilutions of test compounds to a final density of OD OD600 nm of 0.0005 and incubated at 35° C. for 22 hours. […] The results from the protocol starting from a concentration of 64 µg/mL are listed in Table 1 and the results from the modified protocol are shown in Table 2.
Background: In broth dilution the organism is exposed to a series of concentrations in liquid medium.

Assay [2] has as its system Escherichia coli MC4100 harboring the IMP4213. Nature of the assay: MIC, broth micro-dilution technique (CLSI). The note with it: 35° C., 22 hours; for MIC: Escherichia coli, 22 h, read-out: MIC (μg/mL) E. coli, Table 1 protocol: serial 2-fold dilutions starting from 64 μg/ml. The assay is classed as cell-based. How it is done: as §1, §2
Where [3] appears, read: Table 1 protocol: serial 2-fold dilutions starting from 64 μg/ml, 35° C., 22 hours.

≈ marks a conversion by molar mass, not a printed value. Read-outs that look alike come from different tables or passages of the source.

Regarding `CCCCCCCC(=O)NCCC(=O)N[C@@H](CCCCN)C(=O)N(C)[C@@H]1C(=O)N[C@@H](C)C(=O)N[C@H](C(=O)N[C@@H](C)C(=O)C2CO2)Cc2ccc(O)c(c2)-c2cc1ccc2O` (stereo partly shown) [Compound 101], the figures for the MIC in assay [1] and in assay [2] were 64 µg/mL (≈ 76.6 µM) and over 64 µg/mL, respectively.

As for `CC[C@H](NC(=O)[C@@H]1Cc2ccc(O)c(c2)-c2cc(ccc2O)[C@H](N(C)C(=O)[C@H](CCCCN)NC(=O)c2ccc(-c3ccc(Cl)cc3)cc2)C(=O)N[C@@H](C)C(=O)N1)C(C)=O` [Compound 127], the results for the MIC in assay [1] and in assay [2] were over 64 µg/mL and 64 µg/mL (≈ 76.2 µM), respectively. `C[C@H](NC(=O)[C@@H]1Cc2ccc(O)c(c2)-c2cc(ccc2O)[C@H](N(C)C(=O)[C@H](CCCCN)NC(=O)c2ccc(-c3ccc(Cl)cc3)cc2)C(=O)N[C@@H](C)C(=O)N1)C(=O)COC(=O)c1ncccn1` [Compound 122]: the MIC in assay [1] was found to be 1.4 µg/mL (≈ 1.48 µM); in assay [2] it was 32 µg/mL (≈ 33.8 µM). In the case of `CC(=O)OCC(=O)[C@H](C)NC(=O)[C@@H]1Cc2ccc(O)c(c2)-c2cc(ccc2O)[C@H](N(C)C(=O)[C@H](CCCCN)NC(=O)c2ccc(-c3ccc(Cl)cc3)cc2)C(=O)N[C@@H](C)C(=O)N1` [Compound 123], the MIC in assay [1] came to 3.2 µg/mL (≈ 3.62 µM); in assay [2], 32 µg/mL (≈ 36.2 µM).

On to `CCCCCCCC(=O)NCCC(=O)N[C@@H](CCCCN)C(=O)N(C)[C@@H]1C(=O)N[C@@H](C)C(=O)N[C@H](C(=O)N[C@@H](C)C(=O)C2CO2)Cc2ccc(O)c(c2)-c2cc1ccc2O` (stereo partly shown) [Compound 102], for which the “MIC (μg/mL) S. aureus” value in assay [1] (setting [3]) was 64 µg/mL (≈ 76.6 µM). Further, the “MIC (μg/mL) E. coli” value in assay [2] (Table 1 protocol: serial 2-fold dilutions starting from 64 μg/ml) was over 64 µg/mL. Consider `C[C@@H]1NC(=O)[C@@H](N(C)C(=O)[C@H](CCCCN)NC(=O)c2ccc(-c3ccc(Cl)cc3)cc2)c2ccc(O)c(c2)-c2cc(ccc2O)C[C@@H](C(=O)NCC(=O)N2CC[C@H](O)[C@H]2C(N)=O)NC1=O` [Compound 180], for which the MIC in assay [1] (setting [3]) and in assay [2] was 64 µg/mL (≈ 69.2 µM) in each case.

Turning to `CCCCc1ccc(-c2ccc(C(=O)NC[C@@H](C)C(=O)N[C@@H](CCCCN)C(=O)N(C)[C@@H]3C(=O)N[C@@H](C)C(=O)N[C@H](C(=O)N[C@@H](C)C(=O)N4CCC[C@H]4C(N)=O)Cc4ccc(O)c(c4)-c4cc3ccc4OC(=O)OCC(C)C)cc2)cc1` [Compound 184], the MIC in assay [1] is 2 µg/mL (≈ 1.77 µM). In the case of `C[C@H](NC(=O)[C@@H]1Cc2ccc(O)c(c2)-c2cc(ccc2O)[C@H](N(C)C(=O)[C@H](CCCCN)NC(=O)c2ccc(-c3ccc(Cl)cc3)cc2)C(=O)N[C@@H](C)C(=O)N1)C(=O)CCl` [Compound 108], the MIC in assay [1] worked out at 4 µg/mL (≈ 4.65 µM); in assay [2], 8 µg/mL (≈ 9.3 µM). In the same order, the values of `C[C@@H]1NC(=O)[C@@H](N(C)C(=O)[C@H](CCCCN)NC(=O)c2ccc(-c3ccc(Cl)cc3)cc2)c2cc(Br)c(O)c(c2)-c2cc(cc(Br)c2O)C[C@@H](C(=O)O)NC1=O` [Compound 164] are 32 µg/mL (≈ 35 µM) and 8 µg/mL (≈ 8.75 µM). For `CC1OC1C(=O)[C@H](C)NC(=O)[C@@H]1Cc2ccc(O)c(c2)-c2cc(ccc2O)[C@H](N(C)C(=O)[C@H](CCCCN)NC(=O)c2ccc(-c3ccc(Cl)cc3)cc2)C(=O)N[C@@H](C)C(=O)N1` (stereo partly shown) [Compound 105], the MIC in assay [1] (setting [3]) was found to be 4 µg/mL (≈ 4.61 µM); in assay [2], 8 µg/mL (≈ 9.22 µM). Regarding `CCCCCCCC(=O)NCCC(=O)N[C@@H](CCCCN)C(=O)N(C)[C@@H]1C(=O)N[C@@H](C)C(=O)N[C@H](CO)Cc2ccc(O)c(c2)-c2cc1ccc2O` [Compound 153], the MIC in assay [1] (setting [3]) was 130 µg/mL (≈ 179 µM). With `CCCCCCCCCCCCCC(=O)N[C@@H](CN)C(=O)N(C)[C@@H]1C(=O)N[C@@H](C)C(=O)N[C@H](C(=O)N[C@@H](C)B2O[C@@H]3C[C@@H]4C[C@@H](C4(C)C)[C@]3(C)O2)Cc2ccc(OCCN)c(c2)-c2cc1ccc2OCCN` [Compound 318], in assay [2], the MIC is 0.063 µg/mL (≈ 0.0629 µM). Still for that read-out and setting: under `CCCCc1ccc(-c2ccc(C(=O)N[C@@H](CN)C(=O)N(C)[C@@H]3C(=O)N[C@@H](C)C(=O)N[C@H](C(=O)O)Cc4ccc(OCCN)c(c4)-c4cc3ccc4OCCN)cc2)cc1` [Compound 292] stands 0.063 µg/mL (≈ 0.0766 µM).
